Laboratory results published in US20110230476A1, “PI3 KINASE INHIBITORS AND USES THEREOF” (AVILA THERAPEUTICS, INC., priority 2009, published 2011).

The compounds below were run against T1, PI3Kα (p110α/p85α) (Homo sapiens, UniProt P42336) (assay: HTRF assay, potency against active PI3Kα). Conditions: HTRF; [ATP]=50 μM, [di-C8-PIP2]=10 μM; 30 min pre-incubation; read-out: PI3Kα Inhibition.
T1 construct: purchased BPS Bioscience (San Diego, Calif.) or Millipore (Billerica, Mass.)
Type: biochemical
In short: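 IC50 came from a variable-slope fit of % inhibition, calculated from the HTRF emission ratio relative to wells with and without enzyme. Reactions with the active enzyme complex ran 30-60 minutes at 25 °C after ATP addition before stop and detection reagents.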

T1 sequence (P42336 whole entry): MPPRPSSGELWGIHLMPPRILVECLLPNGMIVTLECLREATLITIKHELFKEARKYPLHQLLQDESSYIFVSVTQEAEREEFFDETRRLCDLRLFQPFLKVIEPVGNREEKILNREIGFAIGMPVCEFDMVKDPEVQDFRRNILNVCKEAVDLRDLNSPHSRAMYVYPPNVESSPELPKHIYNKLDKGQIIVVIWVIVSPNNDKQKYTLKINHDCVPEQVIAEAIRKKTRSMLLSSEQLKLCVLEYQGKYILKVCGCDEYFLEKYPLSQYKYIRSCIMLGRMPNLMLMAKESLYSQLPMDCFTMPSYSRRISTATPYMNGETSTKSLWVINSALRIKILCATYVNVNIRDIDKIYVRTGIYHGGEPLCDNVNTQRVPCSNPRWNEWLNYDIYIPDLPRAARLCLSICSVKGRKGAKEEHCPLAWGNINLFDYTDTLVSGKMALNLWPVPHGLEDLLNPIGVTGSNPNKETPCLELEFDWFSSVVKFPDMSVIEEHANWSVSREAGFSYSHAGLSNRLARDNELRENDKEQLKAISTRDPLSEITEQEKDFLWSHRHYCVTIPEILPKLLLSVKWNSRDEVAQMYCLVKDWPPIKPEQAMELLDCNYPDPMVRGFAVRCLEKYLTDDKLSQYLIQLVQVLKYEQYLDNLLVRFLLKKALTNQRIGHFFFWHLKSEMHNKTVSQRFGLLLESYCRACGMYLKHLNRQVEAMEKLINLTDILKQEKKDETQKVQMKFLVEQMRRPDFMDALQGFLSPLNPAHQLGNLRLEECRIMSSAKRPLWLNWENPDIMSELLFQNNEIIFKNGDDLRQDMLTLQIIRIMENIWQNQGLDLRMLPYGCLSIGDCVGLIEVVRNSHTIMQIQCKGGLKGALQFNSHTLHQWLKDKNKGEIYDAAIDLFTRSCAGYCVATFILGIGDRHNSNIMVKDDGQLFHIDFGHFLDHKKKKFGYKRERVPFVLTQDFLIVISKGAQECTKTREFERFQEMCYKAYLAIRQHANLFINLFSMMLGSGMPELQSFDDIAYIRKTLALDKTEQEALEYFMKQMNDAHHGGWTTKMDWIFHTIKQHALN
T1 sequence (P27986 whole entry partner): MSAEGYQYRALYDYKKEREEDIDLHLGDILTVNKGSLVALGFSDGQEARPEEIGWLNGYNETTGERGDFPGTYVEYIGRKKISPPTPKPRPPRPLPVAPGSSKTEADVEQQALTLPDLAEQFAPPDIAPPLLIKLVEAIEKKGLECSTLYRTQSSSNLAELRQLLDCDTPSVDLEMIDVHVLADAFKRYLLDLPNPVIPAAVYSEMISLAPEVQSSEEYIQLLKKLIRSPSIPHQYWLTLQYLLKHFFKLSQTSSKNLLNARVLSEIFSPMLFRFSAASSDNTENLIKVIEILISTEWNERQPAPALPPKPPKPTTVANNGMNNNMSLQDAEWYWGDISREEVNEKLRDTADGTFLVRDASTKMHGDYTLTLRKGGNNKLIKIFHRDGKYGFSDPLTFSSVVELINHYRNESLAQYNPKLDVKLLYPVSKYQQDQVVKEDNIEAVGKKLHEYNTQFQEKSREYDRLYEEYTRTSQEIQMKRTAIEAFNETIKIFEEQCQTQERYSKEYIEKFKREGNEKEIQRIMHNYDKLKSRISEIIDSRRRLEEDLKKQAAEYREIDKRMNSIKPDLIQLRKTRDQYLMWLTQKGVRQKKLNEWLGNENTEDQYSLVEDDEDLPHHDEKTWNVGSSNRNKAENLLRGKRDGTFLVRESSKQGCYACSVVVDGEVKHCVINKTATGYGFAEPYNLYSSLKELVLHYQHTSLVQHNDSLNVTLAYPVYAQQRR

Row | IC50 [µM] | Structure (SMILES)
1 | 0.1 to 1 | C=CC(=O)Nc1ccc(OCc2cc3nc(-c4cnc(N)nc4)cc(N4CCOCC4)c3s2)cc1 [II-g-8, N-(4-((5-(2-aminopyrimidin-5-yl)-7-morpholinothieno[3,2-b]pyridin-2-yl)methoxy)phenyl)acrylamide]
2 | 0.1 to 1 | CCC(=O)NCc1cccc(-c2cc3nc(-c4cccc(O)c4)nc(N4CCOCC4)c3s2)c1 [II^R-a-64, N-(3-(2-(3-hydroxyphenyl)-4-morpholinothieno[3,2-d]pyrimidin-6-yl)benzyl)propionamide]
3 | 0.1 to 1 | CCC(=O)NC1CCN(c2ccc(-c3cc4nc(-c5cccc(O)c5)nc(N5CCOCC5)c4s3)cc2)CC1 [II^R-a-81, N-(1-(4-(2-(3-hydroxyphenyl)-4-morpholinothieno[3,2-d]pyrimidin-6-yl)phenyl)piperidin-4-yl)propionamide]
4 | 0.01 to 0.1 | C=CC(=O)NCCOCCOc1ccc2c(c1OC)N=C(NC(=O)c1cccnc1)N1CCN=C21 [IX-1, N-(8-(2-(2-acrylamidoethoxy)ethoxy)-7-methoxy-2,3-dihydroimidazo[1,2-c]quinazolin-5-yl)nicotinamide]
5 | 0.01 to 0.1 | C/C=C/C(=O)CCC(=O)NCCOc1ccc2c(c1OC)N=C(NC(=O)c1cccnc1)N1CCN=C21 [IX-2, (E)-N-(7-methoxy-8-(2-(4-oxohept-5-enamido)ethoxy)-2,3-dihydroimidazo[1,2-c]quinazolin-5-yl)nicotinamide]
6 | 0.01 to 0.1 | COc1c(OCCNC(=O)CCC(=O)/C=C/c2ccccc2)ccc2c1N=C(NC(=O)c1cccnc1)N1CCN=C21 [IX-3, (E)-N-(7-methoxy-8-(2-(4-oxo-6-phenylhex-5-enamido)ethoxy)-2,3-dihydroimidazo[1,2-c]quinazolin-5-yl)nicotinamide]
7 | 0.1 to 1 | COc1c(OCCNC(=O)CCCC(=O)/C=C/c2ccccc2)ccc2c1N=C(NC(=O)c1cccnc1)N1CCN=C21 [IX-4, (E)-N-(7-methoxy-8-(2-(5-oxo-7-phenylhept-6-enamido)ethoxy)-2,3-dihydroimidazo[1,2-c]quinazolin-5-yl)nicotinamide]
8 | 0.01 to 0.1 | COc1c(OCCNC(=O)c2ccc(NC(=O)/C=C/c3ncc[nH]3)cc2)ccc2c1N=C(NC(=O)c1cccnc1)N1CCN=C21 [IX-6, (E)-N-(8-(2-(4-(3-(1H-imidazol-2-yl)acrylamido)benzamido)ethoxy)-7-methoxy-2,3-dihydroimidazo[1,2-c]quinazolin-5-yl)nicotinamide]
9 | 0.01 to 0.1 | C=CC(=O)N1CCN(c2ccc(-c3ccnc4ccc(/C=C5\SC(=O)NC5=O)cc34)cn2)CC1 [V-4, (Z)-5-((4-(6-(4-acryloylpiperazin-1-yl)pyridin-3-yl)quinolin-6-yl)methylene)thiazolidine-2,4-dione]
10 | 0.01 to 0.1 | C=CC(=O)N1CCN(c2ccc(-c3ccnc4ccc(/C=C5\SC(=O)NC5=O)cc34)cc2)CC1 [V-11, (Z)-5-((4-(4-(4-acryloylpiperazin-1-yl)phenyl)quinolin-6-yl)methylene)thiazolidine-2,4-dione]
11 | < 0.01 | C/C=C/C(=O)CCC(=O)N1CCN(c2ccc(-c3ccnc4ccc(/C=C5\SC(=O)NC5=O)cc34)cn2)CC1 [V-13, (Z)-5-((4-(6-(4-((E)-4-oxohept-5-enoyl)piperazin-1-yl)pyridin-3-yl)quinolin-6-yl)methylene)thiazolidine-2,4-dione]
12 | < 0.01 | C/C=C/C(=O)CCCC(=O)N1CCN(c2ccc(-c3ccnc4ccc(/C=C5\SC(=O)NC5=O)cc34)cn2)CC1 [V-14, (Z)-5-((4-(6-(4-((E)-5-oxooct-6-enoyl)piperazin-1-yl)pyridin-3-yl)quinolin-6-yl)methylene)thiazolidine-2,4-dione]
13 | 0.01 to 0.1 | C/C=C/C(=O)CCC(=O)N1CCN(c2ccc(-c3ccnc4ccc(/C=C5\SC(=O)NC5=O)cc34)cc2)CC1 [V-15, (Z)-5-((4-(4-(4-((E)-4-oxohept-5-enoyl)piperazin-1-yl)phenyl)quinolin-6-yl)methylene)thiazolidine-2,4-dione]
14 | < 0.01 | C/C=C/C(=O)CCCC(=O)N1CCN(c2ccc(-c3ccnc4ccc(/C=C5\SC(=O)NC5=O)cc34)cc2)CC1 [V-16, (Z)-5-((4-(4-(4-((E)-5-oxooct-6-enoyl)piperazin-1-yl)phenyl)quinolin-6-yl)methylene)thiazolidine-2,4-dione]
15 | 0.01 to 0.1 | C/C=C/C(=O)CCCC(=O)N1CCc2ccc(-c3ccnc4ccc(/C=C5\SC(=O)NC5=O)cc34)cc2C1 [V-17, (Z)-5-((4-(2-((E)-5-oxooct-6-enoyl)-1,2,3,4-tetrahydroisoquinolin-7-yl)quinolin-6-yl)methylene)thiazolidine-2,4-dione]
16 | < 0.01 | CC(C)=CC(=O)CCC(=O)N1CCN(c2ccc(-c3ccnc4ccc(/C=C5\SC(=O)NC5=O)cc34)cn2)CC1 [V-18, (Z)-5-((4-(6-(4-(6-methyl-4-oxohept-5-enoyl)piperazin-1-yl)pyridin-3-yl)quinolin-6-yl)methylene)thiazolidine-2,4-dione]
17 | 0.01 to 0.1 | C=CC(=O)N1CCc2ccc(-c3ccnc4ccc(/C=C5\SC(=O)NC5=O)cc34)cc2C1 [V-19, (Z)-5-((4-(2-acryloyl-1,2,3,4-tetrahydroisoquinolin-7-yl)quinolin-6-yl)methylene)thiazolidine-2,4-dione]
18 | > 1 | C/C=C/C(=O)CCCC(=O)Nc1ccc2c(c1)N(c1nc3c(s1)C(=O)NC(C)(C)C3)CCO2 [VI-24, (E)-N-(4-(6,6-dimethyl-4-oxo-4,5,6,7-tetrahydrothiazolo[5,4-c]pyridin-2-yl)-3,4-dihydro-2H-benzo[b][1,4]oxazin-6-yl)-5-oxooct-6-enamide]

Row | IC50 [µM] | Structure (SMILES)
19 | > 1 | C/C=C/C(=O)CCCC(=O)NCC(=O)Nc1ccc2c(c1)N(c1nc3c(s1)C(=O)NC(C)(C)C3)CCO2 [VI-25]
20 | 0.1 to 1 | C=CC(=O)Nc1ccc(CN2CCC(n3ncc4c(N5CCOCC5)nc(-c5ccc(NC(=O)NC)cc5)nc43)CC2)cc1 [VII-5, N-(4-((4-(6-(4-(3-methylureido)phenyl)-4-morpholino-1H-pyrazolo[3,4-d]pyrimidin-1-yl)piperidin-1-yl)methyl)phenyl)acrylamide]
21 | > 1 | C/C=C/C(=O)CCC(=O)N1CCC(n2nc(-c3ccc(OC)c(OC)c3)c3c(N)ncnc32)CC1 [XI-1, (E)-1-(4-(4-amino-3-(3,4-dimethoxyphenyl)-1H-pyrazolo[3,4-d]pyrimidin-1-yl)piperidin-1-yl)hept-5-ene-1,4-dione]
22 | > 1 | C=CC(=O)N(C)CC(=O)N1CCC(n2nc(-c3ccc(OC)c(OC)c3)c3c(N)ncnc32)CC1 [XI-2, N-(2-(4-(4-amino-3-(3,4-dimethoxyphenyl)-1H-pyrazolo[3,4-d]pyrimidin-1-yl)piperidin-1-yl)-2-oxoethyl)-N-methylacrylamide]
23 | > 1 | C=CC(=O)NCCC(=O)N1CCC[C@@H](n2nc(-c3cc4cc(O)ccc4[nH]3)c3c(N)ncnc32)C1 [XI-4, (R)—N-(3-(3-(4-amino-3-(5-hydroxy-1H-indol-2-yl)-1H-pyrazolo[3,4-d]pyrimidin-1-yl)piperidin-1-yl)-3-oxopropyl)acrylamide]
24 | > 1 | COc1ccc(-c2nn(C3CCN(C(=O)CCCC(=O)/C=C/c4ccccc4)CC3)c3ncnc(N)c23)cc1OC [XI-5]
25 | > 1 | C=CC(=O)Nc1ccc(C(=O)N2CCC(n3nc(-c4ccc(OC)c(OC)c4)c4c(N)ncnc43)CC2)cc1 [XI-6, N-(4-(4-(4-amino-3-(3,4-dimethoxyphenyl)-1H-pyrazolo[3,4-d]pyrimidin-1-yl)piperidine-1-carbonyl)phenyl)acrylamide]
26 | > 1 | C=CC(=O)N(C)CC(=O)N1CCC(n2nc(-c3cc4cc(O)ccc4[nH]3)c3c(N)ncnc32)CC1 [XI-8, N-(2-(4-(4-amino-3-(5-hydroxy-1H-indol-2-yl)-1H-pyrazolo[3,4-d]pyrimidin-1-yl)piperidin-1-yl)-2-oxoethyl)-N-methylacrylamide]
27 | 0.1 to 1 | CC(C)=CC(=O)CCC(=O)N1CCN(Cc2cc(-c3cnc(N)nc3)nc(N3CCOCC3)c2)CC1 [XII-1, 1-(4-((2-(2-aminopyrimidin-5-yl)-6-morpholinopyridin-4-yl)methyl)piperazin-1-yl)-6-methylhept-5-ene-1,4-dione]
28 | 0.01 to 0.1 | CC(C)=CC(=O)CCCC(=O)N1CC=C(c2cc(-c3cnc(N)nc3)nc(N3CCOCC3)c2)CC1 [XII-3, 1-(4-(2-(2-aminopyrimidin-5-yl)-6-morpholinopyridin-4-yl)-5,6-dihydropyridin-1(2H)-yl)-7-methyloct-6-ene-1,5-dione]
29 | 0.1 to 1 | CC(C)=CC(=O)CCCCC#Cc1cc(-c2cnc(N)nc2)nc(N2CCOCC2)c1 [XII-6, 10-(2-(2-aminopyrimidin-5-yl)-6-morpholinopyridin-4-yl)-2-methyldec-2-en-9-yn-4-one]
30 | > 1 | CC(C)=CC(=O)CCCCC#Cc1cc(-c2cccc3[nH]ncc23)nc(N2CCOCC2)c1 [XII-7, 10-(2-(1H-indazol-4-yl)-6-morpholinopyridin-4-yl)-2-methyldec-2-en-9-yn-4-one]
31 | > 1 | CC(C)=CC(=O)CCCCC#Cc1cc(-c2cnc(N)cc2C(F)(F)F)nc(N2CCOCC2)c1 [XII-8, 10-(6′-amino-6-morpholino-4′-(trifluoromethyl)-2,3′-bipyridin-4-yl)-2-methyldec-2-en-9-yn-4-one]
32 | > 1 | CC(C)=CC(=O)c1ccc(CCNC(=O)c2cc(-c3cnc(N)cc3C(F)(F)F)nc(N3CCOCC3)c2)cc1 [XII-9, 6′-amino-N-(4-(3-methylbut-2-enoyl)phenethyl)-6-morpholino-4′-(trifluoromethyl)-2,3′-bipyridine-4-carboxamide]
33 | 0.1 to 1 | CC(C)=CC(=O)c1ccc(CCNC(=O)c2cc(-c3cnc(N)nc3)nc(N3CCOCC3)c2)cc1 [XII-10, 2-(2-aminopyrimidin-5-yl)-N-(4-(3-methylbut-2-enoyl)phenethyl)-6-morpholinoisonicotinamide]
34 | > 1 | C=CC(=O)Nc1ccc(CCNC(=O)c2cc(-c3cnc(N)cc3C(F)(F)F)nc(N3CCOCC3)c2)cc1 [XII-11, N-(4-acrylamidophenethyl)-6′-amino-6-morpholino-4′-(trifluoromethyl)-2,3′-bipyridine-4-carboxamide]
35 | > 1 | CC(C)=CC(=O)c1ccc(CCNC(=O)c2cc(-c3cccc4[nH]ncc34)nc(N3CCOCC3)c2)cc1 [XII-12]
